This test deals with T1, CD59 (Homo sapiens, UniProt P13987).
T1 construct: Recombinant soluble human CD59 with an additional C-terminal cysteine residue
T1 sequence (P13987 26-102 limits assumed): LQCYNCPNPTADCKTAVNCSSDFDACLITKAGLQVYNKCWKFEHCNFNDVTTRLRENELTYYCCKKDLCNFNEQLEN
As to the kind of experiment: SPR (Biacore S200) binding to immobilised biotinylated CD59. The source says: To identify which of these peptides bound CD59 most tightly, we used a Biacore S200 surface plasmon resonance (SPR) platform to investigate CD59 affinity (Figure 2b), using a known protein binding partner of CD59 (rILYd4) as a benchmark. Four 13‐mer macrocyclic peptides and one 14‐mer macrocyclic peptide were identified with a dissociation constant (K D) lower than that of rILYd4. Considering their fourfold lower molecular weight, these peptides bind with up to 19‐fold greater efficiency compared to rILYd4 (Figure 2b).
Equipment: SPR analysis was performed on a Cytiva Biacore S200. All buffers were prepared using ultra-pure water from a Millipore Elix Q-Gard purification system. Solutions and buffers were filtered with a 0.22 μm filter and degassed prior to use. The assays were performed on Series S streptavidin (SA) sensor chip (Cytiva). PBS-P+ buffer 10X (0.2 M phosphate buffer with 27 mM KCl, 1.37 M NaCl and 0.5% Surfactant P20 (Tween 20)) was used for the preparation of the assay running buffer (PBS-P+ 1X).
Immobilisation of CD59-biotin: Biotinylated CD59 was immobilised on the surface of a SA chip by non-covalent capture (biotin streptavidin interaction) as per the manufacturer’s instructions. The system was initially primed with running buffer and normalised using BIAnormalizing solution (70% (w/w) glycerol) (Cytiva). Before immobilising the protein, the surface was conditioned with three consecutive one-minute injections of 1 M NaCl in 50 mM NaOH. Biotinylated CD59 (0.5 µg/mL in running buffer) was flowed over the protein (active) channel for different contact times to achieve different immobilisation levels (600–1200 RU). After each protein injection, the needle and injection loop were washed using 50% isopropanol in 1 M NaCl and 50 mM NaOH. A reference channel was prepared by similar treatment; however, running buffer alone rather than CD59-biotin in running buffer was flowed over the chip the same way.
Interaction analysis: Multicycle kinetic and affinity approach was used for the analysis of peptides interactions with CD59. Two-fold serial dilutions of each peptide were prepared in running buffer and were flowed over both the ligand and reference channel using a flow rate (30 μL/min) at 25 °C. A zero concentration was added to each analyte series and three cycles of buffer were run between analytes to restore the baseline. The obtained sensorgrams were analysed using the embedded Biacore S200 Evaluation software. The data were normalised by subtracting RU values of the reference channel and zero concentration of the analyte series. Kinetic rate constants (kon and koff) were determined by fitting the normalised data using the built-in Kinetic analysis model (non-linear regression with a 1:1 Langmuir binding model), KD values were then calculated from the two rate constants ([…]). The KD values were determined again by fitting the normalised data using the built-in Affinity analysis model (1:1 Langmuir binding model).
(In SPR one partner is held on a chip, and binding of the other changes the refractive index at the surface.)

[1] abbreviates: Ala scan of CP-06, SPR, n = 1, read-out: KD.
The mark [2] stands for this setting: SPR, immobilized CD59, average of three technical replicates ± SEM, read-out: KD (nM) ± SEM.

Where two headings read alike, the source gives them in different places. Peptide text beside a SMILES is read from it.

`CC(C)[C@@H]1NC(=O)[C@H](CO)NC(=O)[C@H](CO)NC(=O)[C@H](CCCNC(=N)N)NC(=O)[C@H](CC(N)=O)NC(=O)CNC(=O)[C@H](Cc2c[nH]c3ccccc23)NC(=O)[C@H]([C@@H](C)O)NC(=O)[C@H](Cc2c[nH]c3ccccc23)NC(=O)[C@H](CO)NC(=O)[C@H](C)NC(=O)CSC[C@@H](C(N)=O)NC(=O)CNC(=O)[C@H](CCCNC(=N)N)NC1=O` [CP-06-d-Y1A] (HELM PEPTIDE1{[O=C(C[*:3])[*:2]].A.S.W.T.W.G.N.R.S.S.V.R.G.C.[am]}$PEPTIDE1,PEPTIDE1,1:R3-15:R3$$$V2.0): the Kd under setting [1] stood at 668 nM and the Kd (Ala scan of CP-06, SPR, n = 1, read-out: PKD (converted)) was 676 nM. For the same molecule, the “fold decrease in KD (fold loss in binding affinity)” value (Ala scan vs CP-06, SPR, n = 1, Figure 3b and text) is around 60 fold. The “Fold Change” value (fold decrease in KD vs CP-06, Ala scan) worked out at 61.
Regarding `C[C@@H]1NC(=O)[C@H](CO)NC(=O)[C@@H](Cc2ccc(O)cc2)NC(=O)CSC[C@@H](C(N)=O)NC(=O)[C@H](Cc2ccc(O)cc2)NC(=O)[C@H](Cc2ccc(O)cc2)NC(=O)[C@H](CCC(N)=O)NC(=O)[C@H]([C@@H](C)O)NC(=O)[C@H](CCC(N)=O)NC(=O)[C@H](CCCNC(=N)N)NC(=O)[C@H](CC(N)=O)NC(=O)CNC(=O)[C@H](Cc2c[nH]c3ccccc23)NC1=O` [CP-13] (HELM PEPTIDE1{[O=C(C[*:3])[*:2]].[dY].S.A.W.G.N.R.Q.T.Q.Y.Y.C.[am]}$PEPTIDE1,PEPTIDE1,1:R3-14:R3$$$V2.0), the Kd under setting [2] turned out to be 10.8 ± 0.7 nM.
The same measure, in the same setting: the same measure for `CC(C)[C@@H]1NC(=O)[C@H](Cc2c[nH]cn2)NC(=O)[C@@H](Cc2ccc(O)cc2)NC(=O)CSC[C@@H](C(N)=O)NC(=O)CNC(=O)[C@H](CCCNC(=N)N)NC(=O)[C@H]([C@@H](C)O)NC(=O)[C@H](Cc2ccccc2)NC(=O)[C@H](CO)NC(=O)[C@H](CCCNC(=N)N)NC(=O)[C@H](CC(N)=O)NC(=O)CNC(=O)[C@H](Cc2ccccc2)NC1=O` [CP-04] (HELM PEPTIDE1{[O=C(C[*:3])[*:2]].[dY].H.V.F.G.N.R.S.F.T.R.G.C.[am]}$PEPTIDE1,PEPTIDE1,1:R3-14:R3$$$V2.0): 11.9 ± 0.3 nM.
On to `CC(C)[C@@H]1NC(=O)[C@H](CO)NC(=O)[C@H](CO)NC(=O)[C@H](CCCNC(=N)N)NC(=O)[C@H](CC(N)=O)NC(=O)CNC(=O)[C@H](C)NC(=O)[C@H]([C@@H](C)O)NC(=O)[C@H](Cc2c[nH]c3ccccc23)NC(=O)[C@H](CO)NC(=O)[C@@H](Cc2ccc(O)cc2)NC(=O)CSC[C@@H](C(N)=O)NC(=O)CNC(=O)[C@H](CCCNC(=N)N)NC1=O` [CP-06-W5A] (HELM PEPTIDE1{[O=C(C[*:3])[*:2]].[dY].S.W.T.A.G.N.R.S.S.V.R.G.C.[am]}$PEPTIDE1,PEPTIDE1,1:R3-15:R3$$$V2.0), for which, under setting [1], the Kd amounted to 207 nM.
Same read-out and setting: the same measure for `CC(C)[C@@H]1NC(=O)[C@H](CO)NC(=O)[C@H](CO)NC(=O)[C@H](CCCNC(=N)N)NC(=O)[C@H](CC(N)=O)NC(=O)CNC(=O)[C@H](Cc2c[nH]c3ccccc23)NC(=O)[C@H]([C@@H](C)O)NC(=O)[C@H](Cc2c[nH]c3ccccc23)NC(=O)[C@H](CO)NC(=O)[C@@H](Cc2ccc(O)cc2)NC(=O)CSC[C@@H](C(N)=O)NC(=O)[C@H](C)NC(=O)[C@H](CCCNC(=N)N)NC1=O` [CP-06-G13A] (HELM PEPTIDE1{[O=C(C[*:3])[*:2]].[dY].S.W.T.W.G.N.R.S.S.V.R.A.C.[am]}$PEPTIDE1,PEPTIDE1,1:R3-15:R3$$$V2.0): 678 nM; for `CC(C)[C@@H]1NC(=O)[C@H](CO)NC(=O)[C@H](CO)NC(=O)[C@H](CCCNC(=N)N)NC(=O)[C@H](CC(N)=O)NC(=O)CNC(=O)[C@H](Cc2c[nH]c3ccccc23)NC(=O)[C@H]([C@@H](C)O)NC(=O)[C@H](C)NC(=O)[C@H](CO)NC(=O)[C@@H](Cc2ccc(O)cc2)NC(=O)CSC[C@@H](C(N)=O)NC(=O)CNC(=O)[C@H](CCCNC(=N)N)NC1=O` [CP-06-W3A] (HELM PEPTIDE1{[O=C(C[*:3])[*:2]].[dY].S.A.T.W.G.N.R.S.S.V.R.G.C.[am]}$PEPTIDE1,PEPTIDE1,1:R3-15:R3$$$V2.0): 1200 nM.
With `CC[C@H](C)[C@@H]1NC(=O)[C@H](CCC(N)=O)NC(=O)[C@H](CCCNC(=N)N)NC(=O)[C@H](CC(N)=O)NC(=O)CNC(=O)[C@H](Cc2c[nH]c3ccccc23)NC(=O)[C@H](C)NC(=O)[C@H](CO)NC(=O)[C@@H](Cc2ccc(O)cc2)NC(=O)CSC[C@@H](C(N)=O)NC(=O)[C@H](Cc2ccc(O)cc2)NC(=O)[C@H](Cc2ccc(O)cc2)NC(=O)[C@H](CCC(N)=O)NC1=O` [CP-03] (HELM PEPTIDE1{[O=C(C[*:3])[*:2]].[dY].S.A.W.G.N.R.Q.I.Q.Y.Y.C.[am]}$PEPTIDE1,PEPTIDE1,1:R3-14:R3$$$V2.0), under setting [2], the Kd was 23.4 ± 0.7 nM.
As for `CC(C)[C@@H]1NC(=O)[C@H](CO)NC(=O)[C@H](CO)NC(=O)[C@H](CCCNC(=N)N)NC(=O)[C@H](CC(N)=O)NC(=O)CNC(=O)[C@H](Cc2c[nH]c3ccccc23)NC(=O)[C@H](C)NC(=O)[C@H](Cc2c[nH]c3ccccc23)NC(=O)[C@H](CO)NC(=O)[C@@H](Cc2ccc(O)cc2)NC(=O)CSC[C@@H](C(N)=O)NC(=O)CNC(=O)[C@H](CCCNC(=N)N)NC1=O` [CP-06-T4A] (HELM PEPTIDE1{[O=C(C[*:3])[*:2]].[dY].S.W.A.W.G.N.R.S.S.V.R.G.C.[am]}$PEPTIDE1,PEPTIDE1,1:R3-15:R3$$$V2.0), under setting [1], the Kd was 18 nM.
Consider `CC(C)[C@@H]1NC(=O)[C@H](CO)NC(=O)[C@H](CO)NC(=O)[C@H](CCCNC(=N)N)NC(=O)[C@H](CC(N)=O)NC(=O)CNC(=O)[C@H](Cc2c[nH]c3ccccc23)NC(=O)[C@H]([C@@H](C)O)NC(=O)[C@H](Cc2c[nH]c3ccccc23)NC(=O)[C@H](CO)NC(=O)[C@@H](Cc2ccc(O)cc2)NC(=O)CSC[C@@H](C(=O)NCC(=O)N[C@@H](CO)C(=O)NCC(=O)N[C@@H](CO)C(=O)NCC(=O)N[C@@H](CO)C(=O)N[C@@H](CCCCN)C(N)=O)NC(=O)CNC(=O)[C@H](CCCNC(=N)N)NC1=O` [CP-06-GSGSGSK] (HELM PEPTIDE1{[O=C(C[*:3])[*:2]].[dY].S.W.T.W.G.N.R.S.S.V.R.G.C.G.S.G.S.G.S.K.[am]}$PEPTIDE1,PEPTIDE1,1:R3-15:R3$$$V2.0), for which the Kd (SPR, Figure S2T, read-out: KD) was 18 nM.
`CC(C)[C@@H]1NC(=O)[C@H](Cc2ccccc2)NC(=O)[C@@H](Cc2ccc(O)cc2)NC(=O)CSC[C@@H](C(N)=O)NC(=O)CNC(=O)[C@H](CCCNC(=N)N)NC(=O)[C@H]([C@@H](C)O)NC(=O)[C@H](Cc2c[nH]cn2)NC(=O)[C@H](CC(=O)O)NC(=O)[C@H](CCCNC(=N)N)NC(=O)[C@H](CC(N)=O)NC(=O)CNC(=O)[C@H]([C@@H](C)O)NC1=O` [CP-02] (HELM PEPTIDE1{[O=C(C[*:3])[*:2]].[dY].F.V.T.G.N.R.D.H.T.R.G.C.[am]}$PEPTIDE1,PEPTIDE1,1:R3-14:R3$$$V2.0): under setting [2], the Kd was 15.3 ± 0.2 nM.

Source of the values: PMC12207370, “Macrocyclic Peptide Probes for Immunomodulatory Protein CD59: Potent Modulators of Bacterial Toxin Activity and Antibody‐Dependent Cytotoxicity” (Angewandte Chemie (International Ed. in English), 2025).
